Results as given in PubChem BioAssay AID2060912 (Molecular Pharmacology Branch, DTP, NCI, 2025).

Tested on: HUVEC/MSC spheroids viability
Assay: Human HUVEC/MSC cell line growth inhibition [KRAS2];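 for viability, T/C: percent of DMSO vehicle control luminescence so 100% = untreated viability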
Settings: for IC50: curve of first compound; for viability, T/C: stronger effect = lower value; active = viability on the fitted dose curve at most 10% of control; inactive = the rest
Procedure, shortened: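 Concentration ranges start near each agent's clinical Cmax, or at 10 microM if none is established, and fall by half-log increments. These ranges are tested as single agents and combinations on endothelial/mesenchymal stem cell spheroids lacking tumour cells.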

[1] = second compound 0.0316 µM, first compound 0.0316 µM
[2] = second compound 0.0316 µM, first compound 0.1 µM
[3] = second compound 0.0316 µM, first compound 0.316 µM
[4] = second compound 0.0316 µM, first compound 1 µM
[5] = second compound 0.0316 µM, first compound 3.16 µM
[6] = second compound 0.0316 µM, first compound 10 µM
[7] = second compound 0.1 µM, first compound 0.0316 µM
[8] = second compound 0.1 µM, first compound 0.1 µM
[9] = second compound 0.1 µM, first compound 0.316 µM
[10] = second compound 0.1 µM, first compound 1 µM
[11] = second compound 0.1 µM, first compound 3.16 µM
[12] = second compound 0.1 µM, first compound 10 µM
[13] = second compound 0.316 µM, first compound 0.0316 µM
[14] = second compound 0.316 µM, first compound 0.1 µM
[15] = second compound 0.316 µM, first compound 0.316 µM
[16] = second compound 0.316 µM, first compound 1 µM
[17] = second compound 0.316 µM, first compound 3.16 µM
[18] = second compound 0.316 µM, first compound 10 µM
[19] = second compound 1 µM, first compound 0.0316 µM
[20] = second compound 1 µM, first compound 0.1 µM
[21] = second compound 1 µM, first compound 0.316 µM
[22] = second compound 1 µM, first compound 1 µM
[23] = second compound 1 µM, first compound 3.16 µM
[24] = second compound 1 µM, first compound 10 µM
[25] = second compound 3.16 µM, first compound 0.0316 µM
[26] = second compound 3.16 µM, first compound 0.1 µM
[27] = second compound 3.16 µM, first compound 0.316 µM
[28] = second compound 3.16 µM, first compound 1 µM
[29] = second compound 3.16 µM, first compound 3.16 µM
[30] = second compound 3.16 µM, first compound 10 µM
[31] = second compound 10 µM, first compound 0.0316 µM
[32] = second compound 10 µM, first compound 0.1 µM
[33] = second compound 10 µM, first compound 0.316 µM
[34] = second compound 10 µM, first compound 1 µM
[35] = second compound 10 µM, first compound 3.16 µM
[36] = second compound 10 µM, first compound 10 µM
[37] = second compound 0.0316 µM, first compound 0.000316 µM
[38] = second compound 0.0316 µM, first compound 0.001 µM
[39] = second compound 0.0316 µM, first compound 0.00316 µM
[40] = second compound 0.0316 µM, first compound 0.01 µM
[41] = second compound 0.1 µM, first compound 0.000316 µM
[42] = second compound 0.1 µM, first compound 0.001 µM
[43] = second compound 0.1 µM, first compound 0.00316 µM
[44] = second compound 0.1 µM, first compound 0.01 µM
[45] = second compound 0.316 µM, first compound 0.000316 µM
[46] = second compound 0.316 µM, first compound 0.001 µM
[47] = second compound 0.316 µM, first compound 0.00316 µM
[48] = second compound 0.316 µM, first compound 0.01 µM
[49] = second compound 1 µM, first compound 0.000316 µM
[50] = second compound 1 µM, first compound 0.001 µM
[51] = second compound 1 µM, first compound 0.00316 µM
[52] = second compound 1 µM, first compound 0.01 µM
[53] = second compound 3.16 µM, first compound 0.000316 µM
[54] = second compound 3.16 µM, first compound 0.001 µM
[55] = second compound 3.16 µM, first compound 0.00316 µM
[56] = second compound 3.16 µM, first compound 0.01 µM
[57] = second compound 10 µM, first compound 0.000316 µM
[58] = second compound 10 µM, first compound 0.001 µM
[59] = second compound 10 µM, first compound 0.00316 µM
[60] = second compound 10 µM, first compound 0.01 µM

CC(C)NCC(C(=O)N1CCN(c2ncnc3c2C(C)CC3O)CC1)c1ccc(Cl)cc1 (stereo not given) + CC1OCC2(CCN(c3cnc(Sc4ccnc(N)c4Cl)c(N)n3)CC2)C1N
active: viability, T/C [36] 5.59%
inactive: viability, T/C [1] 115% | viability, T/C [2] 109% | viability, T/C [3] 93.5% | viability, T/C [4] 66.2% | viability, T/C [5] 56.2% | viability, T/C [6] 47.6% | viability, T/C [7] 123% | viability, T/C [8] 107% | viability, T/C [9] 90.9% | viability, T/C [10] 59.6% | viability, T/C [11] 57.3% | viability, T/C [12] 46.1% | viability, T/C [13] 94.1% | viability, T/C [14] 107% | viability, T/C [15] 98.1% | viability, T/C [16] 68.1% | viability, T/C [17] 49.5% | viability, T/C [18] 38% | viability, T/C [19] 89.6% | viability, T/C [20] 91% | viability, T/C [21] 69.8% | viability, T/C [22] 56.4% | viability, T/C [23] 36.4% | viability, T/C [24] 31.6% | viability, T/C [25] 80.3% | viability, T/C [26] 74.4% | viability, T/C [27] 58.3% | viability, T/C [28] 43.1% | viability, T/C [29] 22.1% | viability, T/C [30] 21% | viability, T/C [31] 65.1% | viability, T/C [32] 62.4% | viability, T/C [33] 43.4% | viability, T/C [34] 30.8% | viability, T/C [35] 14.3%
6.15 µM: IC50 (second compound 0.1 µM)
1.31 µM: IC50 (second compound 1 µM)
0.228 µM: IC50 (second compound 10 µM)
0.564 µM: IC50 (second compound 3.16 µM)
7.88 µM: IC50 (second compound 0.0316 µM)
2.55 µM: IC50 (second compound 0.316 µM)

CC(C)n1nc(-c2ccc3oc(N)nc3c2)c2c(N)ncnc21 + CC1OCC2(CCN(c3cnc(Sc4ccnc(N)c4Cl)c(N)n3)CC2)C1N
0.0148 µM: IC50 (second compound 0.0316 µM)
0.00161 µM: IC50 (second compound 3.16 µM)
0.00242 µM: IC50 (second compound 1 µM)
0.0083 µM: IC50 (second compound 0.1 µM)
0.00312 µM: IC50 (second compound 0.316 µM)
inactive: viability, T/C [37] 108% | viability, T/C [38] 95.2% | viability, T/C [39] 63.9% | viability, T/C [40] 53.5% | viability, T/C [1] 50.4% | viability, T/C [2] 43.9% | viability, T/C [41] 100% | viability, T/C [42] 93.8% | viability, T/C [43] 63.3% | viability, T/C [44] 49.6% | viability, T/C [7] 43.6% | viability, T/C [8] 36.4% | viability, T/C [45] 85% | viability, T/C [46] 81.3% | viability, T/C [47] 49.2% | viability, T/C [48] 47.5% | viability, T/C [13] 42.6% | viability, T/C [14] 35.6% | viability, T/C [49] 83.8% | viability, T/C [50] 71.2% | viability, T/C [51] 43.4% | viability, T/C [52] 33.1% | viability, T/C [19] 33.3% | viability, T/C [20] 28.9% | viability, T/C [53] 62.6% | viability, T/C [54] 60% | viability, T/C [55] 36.5% | viability, T/C [56] 27.7% | viability, T/C [25] 22% | viability, T/C [26] 23.1% | viability, T/C [57] 48.2% | viability, T/C [58] 41.8% | viability, T/C [59] 22.3% | viability, T/C [60] 16.2% | viability, T/C [31] 16.8% | viability, T/C [32] 10.7%
< 0.000316 µM: IC50 (second compound 10 µM)

CC1(C)CCC(CN2CCN(c3ccc(C(=O)NS(=O)(=O)c4ccc(NCC5CCOCC5)c([N+](=O)[O-])c4)c(Oc4cnc5[nH]ccc5c4)c3)CC2)=C(c2ccc(Cl)cc2)C1 + CC1OCC2(CCN(c3cnc(Sc4ccnc(N)c4Cl)c(N)n3)CC2)C1N
5.15 µM: IC50 (second compound 0.0316 µM)
active: viability, T/C [6] 4.11% | viability, T/C [12] 1.56% | viability, T/C [18] 3.8% | viability, T/C [24] 0.34% | viability, T/C [30] 0.92% | viability, T/C [36] 0.29%
4.69 µM: IC50 (second compound 0.1 µM)
inactive: viability, T/C [1] 99.2% | viability, T/C [2] 116% | viability, T/C [3] 109% | viability, T/C [4] 108% | viability, T/C [5] 83.8% | viability, T/C [7] 116% | viability, T/C [8] 110% | viability, T/C [9] 102% | viability, T/C [10] 94.9% | viability, T/C [11] 78.6% | viability, T/C [13] 91.5% | viability, T/C [14] 124% | viability, T/C [15] 122% | viability, T/C [16] 110% | viability, T/C [17] 75.6% | viability, T/C [19] 91% | viability, T/C [20] 95% | viability, T/C [21] 102% | viability, T/C [22] 92.3% | viability, T/C [23] 71.6% | viability, T/C [25] 93.2% | viability, T/C [26] 91.9% | viability, T/C [27] 93% | viability, T/C [28] 66.1% | viability, T/C [29] 61.3% | viability, T/C [31] 76% | viability, T/C [32] 76.2% | viability, T/C [33] 85.1% | viability, T/C [34] 69.8% | viability, T/C [35] 40.9%
2.23 µM: IC50 (second compound 10 µM)
3.51 µM: IC50 (second compound 3.16 µM)
4.77 µM: IC50 (second compound 0.316 µM)
4.47 µM: IC50 (second compound 1 µM)

CCN1CCN(Cc2ccc(Nc3ncc(F)c(-c4cc(F)c5nc(C)n(C(C)C)c5c4)n3)nc2)CC1 + CC1OCC2(CCN(c3cnc(Sc4ccnc(N)c4Cl)c(N)n3)CC2)C1N
> 1 µM: IC50 (second compound 0.0316 µM) | IC50 (second compound 0.1 µM) | IC50 (second compound 0.316 µM) | IC50 (second compound 1 µM) | IC50 (second compound 3.16 µM) | IC50 (second compound 10 µM)
inactive: viability, T/C [39] 105% | viability, T/C [40] 105% | viability, T/C [1] 95.6% | viability, T/C [2] 111% | viability, T/C [3] 124% | viability, T/C [4] 121% | viability, T/C [43] 111% | viability, T/C [44] 105% | viability, T/C [7] 117% | viability, T/C [8] 93.4% | viability, T/C [9] 123% | viability, T/C [10] 114% | viability, T/C [47] 108% | viability, T/C [48] 108% | viability, T/C [13] 102% | viability, T/C [14] 96.9% | viability, T/C [15] 117% | viability, T/C [16] 114% | viability, T/C [51] 94.3% | viability, T/C [52] 95.9% | viability, T/C [19] 85.6% | viability, T/C [20] 96% | viability, T/C [21] 102% | viability, T/C [22] 114% | viability, T/C [55] 81.1% | viability, T/C [56] 84.8% | viability, T/C [25] 88.2% | viability, T/C [26] 80% | viability, T/C [27] 96.2% | viability, T/C [28] 87.2% | viability, T/C [59] 74.8% | viability, T/C [60] 66% | viability, T/C [31] 67.2% | viability, T/C [32] 62.3% | viability, T/C [33] 84.1% | viability, T/C [34] 91.2%

Cn1ncnc1[C@H]1c2n[nH]c(=O)c3cc(F)cc(c23)N[C@@H]1c1ccc(F)cc1 + CC1OCC2(CCN(c3cnc(Sc4ccnc(N)c4Cl)c(N)n3)CC2)C1N
inactive: viability, T/C [37] 105% | viability, T/C [38] 111% | viability, T/C [39] 97.5% | viability, T/C [40] 86.9% | viability, T/C [1] 90.8% | viability, T/C [2] 89.7% | viability, T/C [41] 87.9% | viability, T/C [42] 114% | viability, T/C [43] 99.9% | viability, T/C [44] 75.7% | viability, T/C [7] 93.2% | viability, T/C [8] 95.6% | viability, T/C [45] 80% | viability, T/C [46] 111% | viability, T/C [47] 98.5% | viability, T/C [48] 96.9% | viability, T/C [13] 93.2% | viability, T/C [14] 81.7% | viability, T/C [49] 83.9% | viability, T/C [50] 93.7% | viability, T/C [51] 95.4% | viability, T/C [52] 84.3% | viability, T/C [19] 93.8% | viability, T/C [20] 67.7% | viability, T/C [53] 79.7% | viability, T/C [54] 94.4% | viability, T/C [55] 80.9% | viability, T/C [56] 74% | viability, T/C [25] 76.8% | viability, T/C [26] 69.2% | viability, T/C [57] 69.7% | viability, T/C [58] 82.3% | viability, T/C [59] 67.3% | viability, T/C [60] 68.3% | viability, T/C [31] 65.7% | viability, T/C [32] 56%
> 0.1 µM: IC50 (second compound 0.0316 µM) | IC50 (second compound 0.1 µM) | IC50 (second compound 0.316 µM) | IC50 (second compound 1 µM) | IC50 (second compound 3.16 µM) | IC50 (second compound 10 µM)
